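Results reflect a 48-hour exposure of cells in 96-well plates to compound at five concentrations. TGI is the concentration that stops growth completely.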 Where a SMILES comes first, the peptide text is derived from it. The star is where a group is joined. Cbz = O=C(OCc1ccccc1)*
Tests used:
Experiment in all cases: NCI tumour cell line growth inhibition, 48 h
[1] = test system: 786-0 renal
[2] = test system: NCI-H23 lung
[3] = test system: OVCAR-5 ovarian
[4] = test system: CAKI-1 renal
[5] = test system: HT29 colon
[6] = test system: LOX IMVI melanoma
[7] = test system: EKVX NSCLC
[8] = test system: CCRF-CEM leukemia
[9] = test system: MDA-MB-435
[10] = test system: UACC-62 melanoma
[11] = test system: HS 578T breast
[12] = test system: MDA-MB-231 breast
[13] = test system: IGROV1 ovarian
[14] = test system: SNB-19 CNS
[15] = test system: MCF7 breast
[16] = test system: SK-OV-3 ovarian
[17] = test system: OVCAR-8 ovarian
[18] = test system: RXF 393 renal
[19] = test system: MALME-3M melanoma

| Structure (SMILES) | TGI [1] [µM] | TGI [2] [µM] | TGI [3] [µM] | TGI [4] [µM] | TGI [5] [µM] | TGI [6] [µM] | TGI [7] [µM] | TGI [8] [µM] | TGI [9] [µM] | TGI [10] [µM] | TGI [11] [µM] | TGI [12] [µM] | TGI [13] [µM] | TGI [14] [µM] | TGI [15] [µM] | TGI [16] [µM] | TGI [17] [µM] | TGI [18] [µM] | TGI [19] [µM] |
| --- | --- | --- | --- | --- | --- | --- | --- | --- | --- | --- | --- | --- | --- | --- | --- | --- | --- | --- | --- |
| O=c1[nH]c(=O)n2n1C1C=CC2CC1 | > 100 | > 100 | > 100 | > 100 | > 100 | > 100 | > 100 | > 100 | > 100 | > 100 | > 100 | > 100 | > 100 | > 100 | > 100 | > 100 | > 100 |  |  |
| Cc1ccc(S(=O)(=O)N2CCCSCCN(S(=O)(=O)c3ccc(C)cc3)CCCSCC2)cc1 | > 100 | > 100 | > 100 |  | > 100 |  | > 100 |  | > 100 | > 100 | > 100 | > 100 | > 100 | > 100 | > 100 | > 100 | > 100 | > 100 |  |
| O=[p+]1c2ccccc2[nH]c2ccccc21 | > 100 | > 100 | > 100 | > 100 | > 100 | > 100 | > 100 | > 100 | > 100 | > 100 |  | > 100 | > 100 | > 100 | > 100 | > 100 | > 100 | > 100 | > 100 |
| Cc1ccc(C)c(COCCOCn2c(=O)[nH]c(=O)c3cc(Br)ccc32)c1 | > 100 | > 100 | > 100 | > 100 | > 100 | > 100 | > 100 | > 100 | > 100 | > 100 |  | > 100 | > 100 | > 100 | > 100 | > 100 | > 100 | > 100 | > 100 |
| COc1ccc(/C=C2\CN(C)CC3C2=NN(c2ccccc2)C3c2ccc(OC)cc2)cc1 (stereo unspecified) | > 100 | > 100 | > 100 | > 100 | > 100 | > 100 | > 100 | > 100 | > 100 | > 100 | > 100 |  | > 100 | > 100 | > 100 | 55.1 | > 100 | 48.2 | > 100 |
| COc1cc2cc(C(=O)N3CC(CCl)c4c3cc(O)c3ccccc43)[nH]c2c(OC)c1OC (stereo unspecified) | 0.506 |  | 0.549 |  | > 50 | 0.625 | 0.597 | < 0.005 |  | 0.291 | < 0.005 |  |  | 1.12 |  | 0.996 | > 50 | < 0.005 | < 0.005 |
| CCOC(=O)CNC(=O)C(C)NC(=O)C(NC(=O)OCc1ccccc1)C(C)C (stereo not drawn) (Cbz-Val-Ala-Gly-OEt; configuration not given here) | > 100 | > 100 | > 100 | > 100 | > 100 |  | > 100 |  | > 100 | > 100 | > 100 |  | > 100 | > 100 | > 100 | > 100 | > 100 | > 100 | > 100 |
| CC(C)(SCc1ccccc1)C(N)C(=O)O (stereo unspecified) | > 100 | > 100 | > 100 | > 100 | > 100 | > 100 | > 100 | > 100 | > 100 | > 100 |  | > 100 | > 100 | > 100 |  |  | > 100 | > 100 | > 100 |
| CC(C)N(/C(F)=N\C(=O)Nc1ccccc1C(F)(F)F)C(C)C | > 100 | > 100 | > 100 | > 100 | > 100 | > 100 | > 100 | > 100 |  |  | > 100 | > 100 | > 100 | > 100 | > 100 | > 100 | > 100 |  | > 100 |
| O=C1CCCC2=C1CC1=C(CCCC1=O)N2c1cccc([N+](=O)[O-])c1 | > 100 | > 100 | > 100 | > 100 | > 100 | > 100 | > 100 | > 100 |  | > 100 | > 100 |  | > 100 | > 100 | > 100 | > 100 | > 100 | > 100 |  |
| O=P1(Oc2ccccc2)NCc2ncccc2O1 (stereo unspecified) | > 100 | > 100 | > 100 | > 100 | > 100 | > 100 | > 100 | > 100 | > 100 | > 100 |  | > 100 | > 100 | > 100 | > 100 |  | > 100 | > 100 |  |
| CN=C(NC)N(C)c1nc(=[N+](C)C)ss1 | > 100 | > 100 | > 100 | 98.3 | > 100 | > 100 | > 100 | > 100 |  | > 100 |  |  | > 100 | > 100 |  | > 100 | > 100 | > 100 |  |
| COc1ccc(-c2cc(-c3ccccc3)nc3c2CC(=O)Nc2ccccc2-3)cc1OC | > 100 | > 100 | > 100 | > 100 | > 100 | > 100 | > 100 | > 100 | > 100 | > 100 |  | 6.21 | > 100 | > 100 | > 43.1 | > 92.6 | 0.447 | > 46.3 | > 70.3 |

Reference: PubChem BioAssay (NCI)
